Laboratory results reported in patent publication US8546608B2, “Proteasome inhibitors and methods of using the same” (Cephalon, Inc., priority 2003, dated 2013).

What was measured:
[1] = target: T1, 20S Human Erythrocyte Proteasome (HEP) (Homo sapiens, UniProt P20618+P28074); assay: Chymotrypsin-like activity of 20S Human Erythrocyte Proteasome (HEP), IC50 determination; format: biochemical; details: assay of Example C, inhibition of HEP
T1 construct: 20S Human Erythrocyte Proteasome (HEP), purchased from Immatics Biotechnologies Inc; purchased Immatics Biotechnologies Inc., Tübingen, Germany; host or cells: human erythrocytes (natural source)
Summary of the method: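 20S proteasome at 0.2 μg/mL (about 0.6 nM catalytic sites) in 20 mM Tris with 0.04% SDS, preincubated 15 min at 37° C with inhibitor before Suc-LLVY-AMC (100 μM final). AMC fluorescence read in the linear range; triplicates, IC50 from concentration series.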

[2] = target: T2, proteasome in Molt-4 cells (human leukemia) (Homo sapiens, UniProt P20618+P28074); format: cell-based; details: assay of Example E, inhibition of MOLT4; read-out: MOLT4 (EC50)
T2 sequence (P28074 60-263): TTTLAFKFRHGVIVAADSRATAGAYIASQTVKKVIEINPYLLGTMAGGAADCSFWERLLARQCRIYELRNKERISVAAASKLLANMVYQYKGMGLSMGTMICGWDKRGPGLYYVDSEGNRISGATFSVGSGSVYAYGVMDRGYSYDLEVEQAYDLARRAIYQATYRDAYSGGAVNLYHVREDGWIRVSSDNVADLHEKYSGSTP
T2 sequence (P20618 29-241): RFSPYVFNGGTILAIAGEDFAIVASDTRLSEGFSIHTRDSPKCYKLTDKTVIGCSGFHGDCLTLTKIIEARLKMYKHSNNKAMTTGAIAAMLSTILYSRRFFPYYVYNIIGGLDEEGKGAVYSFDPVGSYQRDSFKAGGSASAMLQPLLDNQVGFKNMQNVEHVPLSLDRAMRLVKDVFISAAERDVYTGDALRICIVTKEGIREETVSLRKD
Summary of the method: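 Intact Molt-4 cells (6×10^6 cells/mL) in HEPES-buffered saline were preincubated with inhibitor 15 min at 37 °C, then given cell-permeable MeOSuc-FLF-AFC at 25 μM final.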

CCCCc1ccc(C(=O)N[C@@H](CNC(=O)OCc2ccccc2)C(=O)N[C@@H](CC(C)C)B2O[C@@H]3C[C@@H]4C[C@@H](C4(C)C)[C@]3(C)O2)cc1 [D.16.6]
IC50 [1]: < 10 nM | EC50 [2]: < 200 nM | melting point: 95 to 100 °C

CCCCCCCCCC(=O)N[C@@H](CNC(=O)c1ccc(S(N)(=O)=O)cc1)C(=O)N[C@@H](CC(C)C)B1O[C@@H]2C[C@@H]3C[C@@H](C3(C)C)[C@]2(C)O1 [D.24.2, Decanamide, N-[(1S)-1-[[[(1R)-1-[(3aS,4S,6S,7aR)-hexahydro-3a,5,5-trimethyl-4,6-methano-1,3,2-benzodioxaborol-2-yl]-3-methylbulyl]amino]carbonyl]-2-[(4-sulfonamidophenyl)carbonyl-amido]ethyl]-]
melting point: 178 to 181 °C

CCCCc1ccc(C(=O)N[C@@H](CNC(C)=O)C(=O)N[C@@H](CC(C)C)B2O[C@@H]3C[C@@H]4C[C@@H](C4(C)C)[C@]3(C)O2)cc1 [D.24.3, 4-butylbenzamide, N-[(1S)-1-[[[(1R)-1-[(3aS,aS,6S,7aR)-hexahydro-3a,5,5-trimethyl-4,6-methano-1,3,2-benzodioxaborol-2-yl-]-3-methylbutyl]amino]carbonyl]-2-(acetamido)ethyl]-]
IC50 [1]: < 10 nM | EC50 [2]: < 200 nM | melting point: 133 to 135 °C

CCCCc1ccc(C(=O)N[C@@H](CNS(C)(=O)=O)C(=O)N[C@@H](CC(C)C)B2O[C@@H]3C[C@@H]4C[C@@H](C4(C)C)[C@]3(C)O2)cc1 [D.24.4, 4-butylbenzamide, N-[(1S)-1-[[[(1R)-1-[(3aS,aS,6S,7aR)-hexahydro-3a,5,5-trimethyl-4,6-methano-1,3,2-benzodioxaborol-2-yl-]-3-methylbulyl]amino]carbonyl]-2-(methanesulfonamido)ethyl]-]
IC50 [1]: < 10 nM | EC50 [2]: < 200 nM | melting point: 53 to 55 °C

CCCCc1ccc(C(=O)N[C@@H](CNC(=O)c2ccc(C)cc2)C(=O)N[C@@H](CC(C)C)B2O[C@@H]3C[C@@H]4C[C@@H](C4(C)C)[C@]3(C)O2)cc1 [D.24.6, 4-butylbenzamide, N-[(1S)-1-[[[(1R)-1-[(3aS,aS,6S,7aR)-hexahydro-3a,5,5-trimethyl-4,6-methano-1,3,2-benzodioxaborol-2-yl-]-3-methylbutyl]amino]carbonyl]-2-[(4-methylphenyl)carbonylamino]ethyl]-]
IC50 [1]: < 10 nM | EC50 [2]: < 200 nM | melting point: 150 to 152 °C

CCCCCCCCCC(=O)N[C@@H](CNC(=O)c1cccs1)C(=O)N[C@@H](CC(C)C)B1O[C@@H]2C[C@@H]3C[C@@H](C3(C)C)[C@]2(C)O1 [D.24.9, Decanamide, N-[(1S)-1-[[[(1R)-1-[(3aS,4S,6S,7aR)-hexahydro-3a,5,5-trimethyl-4,6-methano-1,3,2-benzodioxaborol-2-yl]-3-methylbutyl]amino]carbonyl]-2-[(thien-2-ylcarbonyl)amino]ethyl]-]
IC50 [1]: < 10 nM | EC50 [2]: < 200 nM | melting point: 110 °C

CCCCc1ccc(C(=O)N[C@@H](CNC(=O)c2cccn2C)C(=O)N[C@@H](CC(C)C)B2O[C@@H]3C[C@@H]4C[C@@H](C4(C)C)[C@]3(C)O2)cc1 [D.24.13]
melting point: 88 to 92 °C

CCCCc1ccc(C(=O)N[C@@H](CNC(=O)c2ccc(S(N)(=O)=O)cc2)C(=O)N[C@@H](CC(C)C)B2O[C@@H]3C[C@@H]4C[C@@H](C4(C)C)[C@]3(C)O2)cc1 [D.24.16]
IC50 [1]: < 10 nM | EC50 [2]: < 200 nM | melting point: 145 to 147 °C

CCCCc1ccc(C(=O)N[C@@H](CNC(=O)c2ccno2)C(=O)N[C@@H](CC(C)C)B2O[C@@H]3C[C@@H]4C[C@@H](C4(C)C)[C@]3(C)O2)cc1 [D.24.21, 4-butylbenzamide, N-[(1S)-1-[[[(1R)-1-[(3aS,aS,6S,7aR)-hexahydro-3a,5,5-trimethyl-4,6-methano-1,3,2-benzodioxaborol-2-yl-]-3-methylbutyl]amino]carbonyl]-2-[(1-isoxazol-5-yl)-carbonylamino]ethyl]-]
melting point: 128 to 130 °C

CCCCc1ccc(C(=O)N[C@@H](CNS(=O)(=O)c2cn(C)cn2)C(=O)N[C@@H](CC(C)C)B2O[C@@H]3C[C@@H]4C[C@@H](C4(C)C)[C@]3(C)O2)cc1 [D.24.23, 4-butylbenzamide, N-[(1S)-1-[[[(1R)-1-[(3aS,aS,6S,7aR)-hexahydro-3a,5,5-trimethyl-4,6-methano-1,3,2-benzodioxaborol-2-yl-]-3-methylbulyl]amino]carbonyl]-2-[(1-methyl-1H-imidazole-4-)sulfonylamino]ethyl]-]
melting point: 69 to 71 °C

CC(C)C[C@H](NC(=O)[C@H](CNS(=O)(=O)c1ccc(F)cc1)NC(=O)c1ccc(Oc2ccccc2)cc1)B1O[C@@H]2C[C@@H]3C[C@@H](C3(C)C)[C@]2(C)O1 [D.24.29, 4-phenoxybenzamide, N-[(1S)-1-[[[(1R)-1-[(3aS,4S,6S,7aR)-hexahydro-3a,5,5-trimethyl-4,6-methano-1,3,2-benzodioxaborol-2-yl]-3-methylbutyl]amino]carbonyl]-2-[4-fluoro-benzenesulfonammide]ethyl]-]
melting point: 90 to 93 °C

Cc1cc(C(=O)NC[C@H](NC(=O)c2ccc(Oc3ccccc3)cc2)C(=O)N[C@@H](CC(C)C)B2O[C@@H]3C[C@@H]4C[C@@H](C4(C)C)[C@]3(C)O2)n(C)n1 [D.24.30, 4-phenoxybenzamide, N-[(1S)-1-[[[(1R)-1-[(3aS,aS,6S,7aR)-hexahydro-3a,5,5-trimethyl-4,6-methano-1,3,2-benzodioxaborol-2-yl-]-3-methylbutyl]amino]carbonyl]-2-[(2,5-dimethyl-2H-pyrazole)carbonylamino]ethyl]-]
melting point: 100 to 103 °C

CC(C)C[C@H](NC(=O)[C@H](CNC(=O)c1ccc(-c2ccccc2)cc1)NC(=O)c1ccc(Oc2ccccc2)cc1)B1O[C@@H]2C[C@@H]3C[C@@H](C3(C)C)[C@]2(C)O1 [D.24.31, 4-phenoxybenzamide, N-[(1S)-1-[[[(1R)-1-[(3aS,4S,6S,7aR)-hexahydro-3a,5,5-trimethyl-4,6-methano-1,3,2-benzodioxaborol-2-yl]-3-methylbutyl]amino]carbonyl]-2-(4-phenylbenzoylamino)ethyl]-]
melting point: 150 to 152 °C

CCCCc1ccc(C(=O)N[C@@H](CNC(=O)c2ccc(-c3ccccc3)cc2)C(=O)N[C@@H](CC(C)C)B2O[C@@H]3C[C@@H]4C[C@@H](C4(C)C)[C@]3(C)O2)cc1 [D.24.32, 4-butylbenzamide, N-[(1S)-1-[[[(1R)-1-[(3aS,4S,6S,7aR)-hexahydro-3a,5,5-trimethyl-4,6-methano-1,3,2-benzodioxaborol-2-yl]-3-methylbutyl]amino]carbonyl]-2-(4-phenylbenzoylamino)ethyl]-]
melting point: 195 to 198 °C

CCCCc1ccc(C(=O)N[C@@H](CNC(=O)C#Cc2ccccc2)C(=O)N[C@@H](CC(C)C)B2O[C@@H]3C[C@@H]4C[C@@H](C4(C)C)[C@]3(C)O2)cc1 [D.24.33, 4-butylbenzamide, N-[(1S)-1-[[[(1R)-1-[(3aS,4S,6S,7aR)-hexahydro-3a,5,5-trimethyl-4,6-methano-1,3,2-benzodioxaborol-2-yl]-3-methylbutyl]amino]carbonyl]-2-(3-phenylpropynoylamino)ethyl]-]
melting point: 118 to 120 °C

CCCCc1ccc(C(=O)N[C@@H](CNC(=O)C2CCN(S(C)(=O)=O)CC2)C(=O)N[C@@H](CC(C)C)B2O[C@@H]3C[C@@H]4C[C@@H](C4(C)C)[C@]3(C)O2)cc1 [D.24.36, 4-butylbenzamide, N-[(1S)-1-[[[(1R)-1-[(3aS,aS,6S,7aR)-hexahydro-3a,5,5-trimethyl-4,6-methano-1,3,2-benzodioxaborol-2-yl-]-3-methylbutyl]amino]carbonyl]-2-(1-methanesulfonyl-piperidine-4-carbonylamino)ethyl]-]
melting point: 170 to 172 °C

CCCCCCCCCCCCC(=O)N[C@H](C(=O)N[C@@H](CC(C)C)B(O)O)[C@@H](C)O [E.3.3, Boronic acid, [(1R)-1-[[(2S,3R)-3-hydroxy-2-[(tridecanoyl)amino]-1-oxobutyl]amino]-3-methylbutyl]]
IC50 [1]: < 10 nM | EC50 [2]: < 200 nM | melting point: 97 to 116 °C

CCCCc1ccc(C(=O)N[C@@H](CNC(=O)Cc2ccc(OC)c(OC)c2)C(=O)N[C@@H](CC(C)C)B(O)O)cc1 [E.5.15, Boronic acid, [(1R)-1-[[(2S)-3-[(3,4-dimethoxyphenyl)acetylamino]-2-[(4-butylbenzoylamino)]-1-oxopropyl]amino]-3-methylbutyl]]
melting point: 150 to 152 °C

CCCCc1ccc(C(=O)N[C@@H](CNC(=O)C2CCN(S(C)(=O)=O)CC2)C(=O)N[C@@H](CC(C)C)B(O)O)cc1 [E.5.38, Boronic acid, [(1R)-1-[[(2S)-3-(1-methanesulfonylpiperidine-4-carbonylamino)-2-[(4-butylbenzoylamino)]-1-oxopropyl]amino]-3-methylbutyl]]
melting point: 170 to 173 °C
